The record followed here is US9550782B2, “Compounds and methods for treating diabetes” (Medivation Technologies, Inc., priority 2011, dated 2017).

For assay [1], the target named is T1, human recombinant adrenergic α2A receptor (Homo sapiens, UniProt P08913).
T1 construct: expressed in transfected cells; host or cells: insect Sf9 cells
T1 sequence (P08913 1-465): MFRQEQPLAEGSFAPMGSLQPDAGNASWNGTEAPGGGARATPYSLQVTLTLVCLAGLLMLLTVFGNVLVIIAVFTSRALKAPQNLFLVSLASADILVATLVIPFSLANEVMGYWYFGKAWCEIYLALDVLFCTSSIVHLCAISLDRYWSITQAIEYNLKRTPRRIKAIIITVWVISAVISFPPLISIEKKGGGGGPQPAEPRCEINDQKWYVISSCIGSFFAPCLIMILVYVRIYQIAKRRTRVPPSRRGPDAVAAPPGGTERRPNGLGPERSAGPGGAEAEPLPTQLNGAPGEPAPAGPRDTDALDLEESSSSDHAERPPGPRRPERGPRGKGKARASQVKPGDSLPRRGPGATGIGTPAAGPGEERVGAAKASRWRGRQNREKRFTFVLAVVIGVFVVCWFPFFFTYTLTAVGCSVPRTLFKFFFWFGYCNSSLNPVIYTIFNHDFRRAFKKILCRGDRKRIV
Briefly: Radioligand binding, adrenergic α2A ([3H]MK-912). The conditions noted are these: [3H]MK-912. Summed up: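 Receptor expressed in Sf9 cells, in 50 mM Tris-HCl pH 7.4, 12.5 mM MgCl2, 2 mM EDTA; compounds incubated with 1 nM [3H]MK-912 for 60 min at 25 °C.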

Assay [2] addresses T2, human recombinant adrenergic α2B receptor (Homo sapiens, UniProt P18089).
T2 construct: expressed in transfected cells; host or cells: CHO-K1
T2 sequence (P18089 1-450): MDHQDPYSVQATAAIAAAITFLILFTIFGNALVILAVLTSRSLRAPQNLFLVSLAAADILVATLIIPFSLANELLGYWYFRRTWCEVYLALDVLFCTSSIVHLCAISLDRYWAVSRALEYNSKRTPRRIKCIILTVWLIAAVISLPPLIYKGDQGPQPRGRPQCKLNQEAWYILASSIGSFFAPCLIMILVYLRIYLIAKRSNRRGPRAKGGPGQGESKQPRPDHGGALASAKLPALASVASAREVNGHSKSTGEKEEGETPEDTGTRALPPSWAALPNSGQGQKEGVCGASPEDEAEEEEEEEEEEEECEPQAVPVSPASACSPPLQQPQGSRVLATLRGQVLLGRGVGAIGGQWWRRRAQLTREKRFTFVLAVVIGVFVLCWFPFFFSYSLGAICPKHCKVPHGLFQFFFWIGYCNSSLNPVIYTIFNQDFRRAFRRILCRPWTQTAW
Briefly: Radioligand binding, adrenergic α2B ([3H]Rauwolscine). Put shortly:
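Membranes from CHO-K1 cells expressing human recombinant α2B, in 50 mM Tris-HCl pH 7.4, 12.5 mM MgCl2, 1 mM EDTA, 0.2% BSA, incubated with compound and 2.5 nM [3H]Rauwolscine, 60 min, 25 °C.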

For assay [3], the target named is T3, rat adrenergic α1B receptor (Rattus norvegicus, UniProt P15823).
T3 construct: rat adrenergic α1B receptor obtained from Wistar Rat liver; from tissue; host or cells: Wistar rat liver
T3 sequence (P15823 1-515): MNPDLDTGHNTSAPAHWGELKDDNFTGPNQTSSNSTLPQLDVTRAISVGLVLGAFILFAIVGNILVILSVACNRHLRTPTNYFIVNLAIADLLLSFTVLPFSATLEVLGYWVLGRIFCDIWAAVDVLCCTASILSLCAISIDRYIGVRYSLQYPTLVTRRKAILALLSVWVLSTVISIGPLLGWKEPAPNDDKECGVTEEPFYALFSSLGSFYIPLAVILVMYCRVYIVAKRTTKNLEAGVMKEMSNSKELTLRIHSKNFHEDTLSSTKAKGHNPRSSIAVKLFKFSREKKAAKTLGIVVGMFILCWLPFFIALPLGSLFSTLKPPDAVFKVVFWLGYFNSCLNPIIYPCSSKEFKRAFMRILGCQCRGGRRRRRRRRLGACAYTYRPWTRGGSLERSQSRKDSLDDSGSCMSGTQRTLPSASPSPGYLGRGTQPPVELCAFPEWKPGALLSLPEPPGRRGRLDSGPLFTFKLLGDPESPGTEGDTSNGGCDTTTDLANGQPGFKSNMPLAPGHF
Briefly: Radioligand binding, adrenergic α1B ([3H]Prazosin). Also noted: species or system Wistar Rat. Summed up:
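Rat α1B receptor from Wistar rat liver was incubated with 0.25 nM [3H]prazosin for 60 min at 25 °C in 50 mM Tris-HCl, pH 7.4, 0.5 mM EDTA. Non-specific binding was defined with 10 μM phentolamine. Bound radioligand was measured by filtration and counting, reported as percent inhibition of specific binding.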

Assay [4] has as its target T4, human recombinant adrenergic α1D receptor (Homo sapiens, UniProt P25100).
T4 construct: expressed in transfected cells; host or cells: HEK-293
T4 sequence (P25100 1-572): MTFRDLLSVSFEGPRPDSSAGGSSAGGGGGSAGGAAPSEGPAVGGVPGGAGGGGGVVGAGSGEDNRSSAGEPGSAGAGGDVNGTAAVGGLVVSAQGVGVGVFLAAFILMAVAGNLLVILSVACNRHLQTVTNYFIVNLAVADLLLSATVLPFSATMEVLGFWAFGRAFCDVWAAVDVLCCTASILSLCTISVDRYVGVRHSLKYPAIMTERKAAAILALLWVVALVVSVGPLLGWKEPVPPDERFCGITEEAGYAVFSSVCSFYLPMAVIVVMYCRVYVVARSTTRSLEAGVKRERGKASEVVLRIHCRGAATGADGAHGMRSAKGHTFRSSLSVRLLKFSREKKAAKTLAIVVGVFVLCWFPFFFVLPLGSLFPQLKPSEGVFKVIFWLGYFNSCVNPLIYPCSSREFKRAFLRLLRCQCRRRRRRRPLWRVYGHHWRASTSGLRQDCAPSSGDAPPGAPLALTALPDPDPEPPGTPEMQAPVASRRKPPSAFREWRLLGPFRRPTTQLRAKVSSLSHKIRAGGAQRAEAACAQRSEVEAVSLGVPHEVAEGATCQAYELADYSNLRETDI
Briefly: Radioligand binding, adrenergic α1D ([3H]Prazosin). As for the experimental part:
Compounds were incubated with 0.6 nM [^3H]Prazosin for 60 min at 25° C. Non-specific binding was estimated in the presence of 10 μM phentolamine. Receptor proteins were filtered and washed, the filters were then counted to determine [^3H]Prazosin specifically bound. […] Biochemical assay results are presented as the percent inhibition of specific binding in Table B1.

Where two headings read alike, the source gives them in different places.

As usually defined, the inhibition is the drop in the measured response relative to a control, in per cent. For the compound `CCC(O)(Cn1c2c(c3cc(C)ccc31)CN(C)CC2)c1ccc(F)cc1` (centres unmarked) [compound 34], the inhibition at 0.1 µM was found to be 28% in assay [1] (read-out: Percentage inhibition of ligand binding, Adrenergic α2A (0.1 μM), compound at 0.1 μM, repeat datapoints each shown); 38% in assay [2] (read-out: Percentage inhibition of ligand binding, Adrenergic α2B (0.1 μM), compound at 0.1 μM, repeat datapoints each shown); 30% in assay [3] (read-out: Percentage inhibition of ligand binding, Adrenergic α1B (0.1 μM), compound at 0.1 μM, repeat datapoints each shown); 2% in assay [4] (read-out: Percentage inhibition of ligand binding, Adrenergic α1D (0.1 μM), compound at 0.1 μM, repeat datapoints each shown).

Turning to `Cc1ccc2c(c1)c1c(n2CCc2sccc2C)CCN(C)C1` [compound 308], the inhibition at 0.1 µM in assay [1] (compound at 0.1 μM, read-out: Percentage inhibition of ligand binding, Adrenergic α2A) amounted to 86%; in assay [2] (compound at 0.1 μM, read-out: Percentage inhibition of ligand binding, Adrenergic α2B) it was 97%; in assay [3] (compound at 0.1 μM, read-out: Percentage inhibition of ligand binding, Adrenergic α1B), 79%; in assay [4] (compound at 0.1 μM, read-out: Percentage inhibition of ligand binding, Adrenergic α1D), 56%.
